Measurements reported in patent US6710044B2, “Technical field” (NeuroSearch A/S, priority 1996, dated 2004).
Where “and” joins values, the source holds several entries; their conditions need not be identical. Identical values can stand only once.

| melting point | SMILES |
| --- | --- |
| 158 to 160 °C | CN1CCCC(c2cccc(-n3cnc4cc(C#N)ccc43)c2)C1.Cl (centres unmarked) |
| 224 to 227 °C | CN1CCN(c2cccc(-n3cnc4cc(C=NO)ccc43)c2)CC1 |
| 165 to 169 °C | CC(=NOC(C)C)c1ccc2c(c1)ncn2-c1cccc(N2CCN(CCO)CC2)c1.Cl |
| 131 to 132 °C | CN1CCN(c2cccc(-n3cnc4cc(-c5ccccc5)ccc43)c2)CC1 |
| 86 to 87 °C | CCOC(=O)c1ccc2c(c1)ncn2-c1cccc(N2CCN(C)CC2)c1 |
| 133 to 134 °C | CCOC(=O)C=Cc1ccc2c(c1)ncn2-c1cccc(N2CCN(C)CC2)c1 |
| 138 to 140 °C | COC(=O)C=Cc1ccc2c(c1)ncn2-c1cccc(N2CCN(C)CC2)c1 |
| 160 to 161 °C | CC(C)OC(=O)c1ccc2c(c1)ncn2-c1cccc(N2CCCCC2)c1 |
| 170 to 172 °C | CCCOC(=O)c1ccc2c(c1)ncn2-c1cccc(N2CCCC2)c1 |
| 110 to 111 °C | CC(C)OC(=O)c1ccc2c(c1)ncn2-c1cccc(N2CCN(C)CC2)c1 |
| 113 to 116 °C and 113 to 115 °C | COC(=O)C(C)(C)ON=C(C)c1ccc2c(c1)ncn2-c1cccc(C2CCCN(C)C2)c1 (centres unmarked) |
| 154 to 156 °C | CCOC(CN1CCN(c2cccc(-n3cnc4cc(C(C)=O)ccc43)c2)CC1)=NO |
| 137 to 139 °C | COC(=O)CON=C(C)N1CCN(c2cccc(-n3cnc4cc(C(C)=O)ccc43)c2)CC1 |
| 120 to 122 °C | CCCON=C(CN1CCN(c2cccc(-n3cnc4cc(C(C)=O)ccc43)c2)CC1)OC |
| 199 to 201 °C | COC(=O)C(C)(C)ON=Cc1ccc2c(c1)ncn2-c1cccc(N2CCN(C)CC2)c1.Cl |
| 190 to 191 °C | COC(=O)c1cccc(-n2cnc3cc(-c4ccno4)ccc32)c1 |
| 195 to 197 °C | Cl.O=C(OCc1cccnc1)c1cccc(-n2cnc3cc(-c4ccccc4)ccc32)c1 |
| 87 to 89 °C | CCOC(=O)c1cccc(-n2cnc3cc(-c4ccoc4)ccc32)c1 |
| 168 to 171 °C | CCOC(=O)c1cccc(-n2cnc3cc(C4CCOC4)ccc32)c1.Cl (centres unmarked) |
| 110 to 112 °C | CCOC(=O)CN1CCN(c2cccc(-n3cnc4cc(-c5ccoc5)ccc43)c2)CC1 |
| 162 to 164 °C | CC(C)(C)OC(=O)N1CCN(c2cccc(-n3cnc4cc(-c5ccoc5)ccc43)c2)CC1 |
| 131 to 133 °C | COC(=O)C=CN1CCN(c2cccc(-n3cnc4cc(-c5ccoc5)ccc43)c2)CC1 |
| 104 to 106 °C | CC(=O)c1ccc2c(c1)ncn2-c1cccc(C(=NOC(C)C)OCc2ccccn2)c1 [compound 5a3, 5-Acetyl-1-(3-(2-picolyloxycarbonyl)phenyl)benzimidazole O-i-propyl oxime] |
| 119 to 120 °C | CCON=C(CC1CCN(c2cccc(-n3cnc4cc(C(C)=O)ccc43)c2)CC1)OCC [compound 5d2, 5-Acetyl-1-(3-(4-(ethoxycarbonylmethyl)piperidin-1-yl)phenyl)benzimidazole O-ethyl oxime] |

Continued, compound first:

| SMILES | melting point |
| --- | --- |
| N#Cc1ccc2c(c1)ncn2-c1cccc(N2CCCCC2)c1 | 106 to 108 °C |
| CN1CCN(c2cccc(-n3cnc4cc(C#N)ccc43)c2)CC1 | 177 to 179 °C |
| ON=Cc1ccc2c(c1)ncn2-c1cccc(N2CCCCC2)c1 | 213 to 214 °C |
| ON=Cc1ccc2c(c1)ncn2-c1cccc(N2CCCC2)c1 | 242 to 244 °C |
| CC(C)ON=Cc1ccc2c(c1)ncn2-c1cccc(N2CCCCC2)c1 | 127 to 128 °C |
| CON=Cc1ccc2c(c1)ncn2-c1cccc(N2CCCCC2)c1 | 107 to 108 °C |
| CC(=O)c1ccc2c(c1)ncn2-c1cccc(N2CCN(C(C)=NO)CC2)c1 | 240 to 241 °C |
| CCON=C(C)c1ccc2c(c1)ncn2-c1cccc(N2CCN(C)CC2)c1.Cl | 62 to 63 °C |
| CCON=C(C)c1ccc2c(c1)ncn2-c1cccc(N2CCCC2)c1 | 118 to 120 °C |
| CCON=C(C)c1ccc2c(c1)ncn2-c1cccc(N2CCCCC2)c1 | 88 to 89 °C |
| CC(=NOC(C)C)c1ccc2c(c1)ncn2-c1cccc(C2CCCN(C)C2)c1.Cl (centres unmarked) | 48 to 55 °C |
| CC(=O)c1ccc2c(c1)ncn2-c1cccc(N2CCN(C(C)=NOC(C)C)CC2)c1.Cl | 160 to 163 °C |
| CN1CCN(c2cccc(-n3cnc4cc(-c5ccoc5)ccc43)c2)CC1 | 129 to 130 °C |
| CN1CCCC(c2cccc(-n3cnc4cc(-c5ccoc5)ccc43)c2)C1 (centres unmarked) | 96 to 97 °C |
| CN1CCCC(c2cccc(-n3cnc4cc(-c5ccccc5)ccc43)c2)C1 (centres unmarked) | 42 to 44 °C |
| CN1CCCC(c2cccc(-n3cnc4cc(-c5nc(C6CC6)no5)ccc43)c2)C1.Cl (centres unmarked) | 184 to 190 °C |
| CN1CCCC(c2cccc(-n3cnc4cc(C(C)(C)C)ccc43)c2)C1.Cl (centres unmarked) | 200 °C |
| CCOC(=O)c1ccc2c(c1)ncn2-c1cccc(N2CCN(CCO)CC2)c1.Cl | 233 to 236 °C |

| SMILES | melting point |
| --- | --- |
| CCOC(=O)c1ccc2c(c1)ncn2-c1cccc(N2CCN(C(C)=O)CC2)c1 | 155 to 156 °C |
| CCOC(=O)CN1CCN(c2cccc(-n3cnc4cc(C(=O)OCC)ccc43)c2)CC1.Cl | 196 to 200 °C |
| CCOC(=O)C=Cc1ccc2c(c1)ncn2-c1cccc(N2CCCCC2)c1 | 85 to 87 °C |
| COC(=O)c1ccc2c(c1)ncn2-c1cccc(C2CN(C(C)=O)CCN2)c1 (centres unmarked) | 189 to 191 °C |
| COC(=O)c1ccc2c(c1)ncn2-c1cccc(N2CCN(C)CC2)c1 | 119 to 121 °C |
| CN1CCCC(c2cccc(-n3cnc4cc(C(=O)OCC5CC5)ccc43)c2)C1 (centres unmarked) | 111 to 113 °C |
| CCOC(=O)Cc1ccc2c(c1)ncn2-c1cccc(N2CCN(C)CC2)c1.Cl | 180 to 182 °C |
| CC(=O)c1ccc2c(c1)ncn2-c1cccc(C(=NOC(C)C)OC2CCN(C)CC2)c1 | 106 to 107 °C |
| CC(=O)c1ccc2c(c1)ncn2-c1cccc(C(=NOC(C)C)OC2CCCN(C)C2)c1 (centres unmarked) | 83 to 84 °C |
| CCOC(=O)CON=C(C)c1ccc2c(c1)ncn2-c1cccc(C2CCCN(C)C2)c1.Cl (centres unmarked) | 73 to 75 °C |
| COC(=O)CON=C(C)c1ccc2c(c1)ncn2-c1cccc(C2CCCN(C)C2)c1 (centres unmarked) | 104 to 106 °C |
| COC(=O)C(C)(C)ON=C(C)N1CCN(c2cccc(-n3cnc4cc(C(C)=O)ccc43)c2)CC1 | 119 to 120 °C |
| CCOC(=O)C(=CN1CCN(c2cccc(-n3cnc4cc(C(C)=O)ccc43)c2)CC1)C(=NOC(C)C)OCC | 128 to 129 °C |
| CCOC(=O)c1cccc(-n2cnc3cc(-c4ccccc4)ccc32)c1 | 122 to 123 °C |
| CN1CCCC(OC(=O)c2cccc(-n3cnc4cc(-c5ccccc5)ccc43)c2)C1.Cl (centres unmarked) | 180 to 191 °C |
| CN1CCC(OC(=O)c2cccc(-n3cnc4cc(-c5ccccc5)ccc43)c2)CC1.Cl | 187 to 188 °C |
| COC(=O)CN1CCN(c2cccc(-n3cnc4cc(-c5ccoc5)ccc43)c2)CC1 | 124 to 125 °C |
